# From ChEMBL document CHEMBL1201862, “PubChem BioAssay data set” (2004)
# The source made the active and inactive calls.
# Legend:
# [1] = target: T1, Corticotropin-releasing factor receptor 2/Corticotropin-releasing factor-binding protein (Homo sapiens, UniProt P24387+Q13324); assay: activators of CRF receptor 2 with binding protein – uHTS hits, confirmation (AID 602473); format: functional; conditions: read-out: EC50_Mean
# T1 sequence (Q13324 whole entry): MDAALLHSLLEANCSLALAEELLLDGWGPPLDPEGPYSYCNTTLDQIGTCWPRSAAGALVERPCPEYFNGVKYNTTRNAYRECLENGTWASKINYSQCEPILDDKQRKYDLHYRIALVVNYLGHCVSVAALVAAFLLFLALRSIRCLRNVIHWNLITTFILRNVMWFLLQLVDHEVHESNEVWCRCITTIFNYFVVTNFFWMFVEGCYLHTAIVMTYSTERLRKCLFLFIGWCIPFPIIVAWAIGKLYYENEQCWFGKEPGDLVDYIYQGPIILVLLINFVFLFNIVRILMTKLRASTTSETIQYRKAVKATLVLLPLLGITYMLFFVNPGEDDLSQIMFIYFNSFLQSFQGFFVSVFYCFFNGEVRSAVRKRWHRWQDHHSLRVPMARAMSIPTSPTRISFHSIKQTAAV
# T1 sequence (P24387 whole entry): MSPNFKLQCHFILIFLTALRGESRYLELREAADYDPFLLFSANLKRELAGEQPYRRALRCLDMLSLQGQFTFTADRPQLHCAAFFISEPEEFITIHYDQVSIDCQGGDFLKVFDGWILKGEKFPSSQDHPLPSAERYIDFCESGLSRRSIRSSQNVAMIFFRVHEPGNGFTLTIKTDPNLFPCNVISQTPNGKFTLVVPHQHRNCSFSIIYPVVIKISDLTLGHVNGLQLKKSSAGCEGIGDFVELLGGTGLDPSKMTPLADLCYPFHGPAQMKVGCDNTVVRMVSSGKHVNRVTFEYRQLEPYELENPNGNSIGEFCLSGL
# [2] = target: T1, Corticotropin-releasing factor receptor 2/Corticotropin-releasing factor-binding protein; assay: Dose Response confirmation of uHTS hits for small molecule antagonists of the CRF-binding protein and CRF-R2 receptor complex.; format: functional; conditions: read-out: IC50_Mean
# [3] = target: T2, Polyadenylate-binding protein 1 (Homo sapiens, UniProt P11940); assay: PABP1 MLLE–PAM2 binding inhibitor potency, dose response, biochemical, fluorescence polarization, FITC-PAM2 peptide (AID 602259); format: functional; conditions: read-out: IC50_Mean
# [4] = target: T2, Polyadenylate-binding protein 1; assay: PABP1 MLLE–PAM2 interaction inhibitors, dose response, miRNA deadenylation inhibitor project, biochemical, fluorescence polarization, Cy5-PAM2 peptide, secondary (AID 602260); format: functional; conditions: read-out: IC50_Mean
# [5] = microbe, parasite or virus in culture; format: functional; conditions: Mycobacterium tuberculosis
# [6] = THP-1 cell cytotoxicity, dose response, cytotoxicity control for non-replicating M. tuberculosis project (AID 489025); format: functional
# [7] = target: T3, Heat shock factor protein 1 (Mus musculus, UniProt P38532); assay: inhibition of MG132-induced HSE-luciferase signal, confirmation, cell-based, NIH3T3, luminescence, dose retest (AID 2382); format: functional;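 further: NIH3T3 fibroblasts with HSF1-driven luciferase reporter stressed by proteasome inhibitor MG132; luminescence from HSF1-driven luciferase expression after 8 hours of MG132 stress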
# T3 sequence (P38532 whole entry): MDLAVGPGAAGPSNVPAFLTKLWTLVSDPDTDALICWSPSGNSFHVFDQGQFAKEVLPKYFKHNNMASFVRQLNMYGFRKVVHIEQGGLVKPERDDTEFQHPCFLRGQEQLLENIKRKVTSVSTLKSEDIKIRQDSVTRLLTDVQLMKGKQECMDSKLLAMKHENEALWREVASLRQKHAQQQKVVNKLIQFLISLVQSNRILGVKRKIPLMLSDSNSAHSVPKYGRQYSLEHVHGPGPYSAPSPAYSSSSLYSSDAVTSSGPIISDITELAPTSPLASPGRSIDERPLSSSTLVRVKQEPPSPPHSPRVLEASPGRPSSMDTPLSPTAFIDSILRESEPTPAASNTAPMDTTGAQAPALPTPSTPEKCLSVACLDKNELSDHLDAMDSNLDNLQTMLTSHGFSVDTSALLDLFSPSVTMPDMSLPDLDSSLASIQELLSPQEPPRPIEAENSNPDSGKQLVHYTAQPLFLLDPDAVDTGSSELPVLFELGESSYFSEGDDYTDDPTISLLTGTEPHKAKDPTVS
# [8] = target: Genome polyprotein (dengue virus type 2, UniProt P29990); assay: Dengue-2 NS5 methyltransferase inhibitors, primary screen, biochemical, confirmation dose response (AID 588689); format: functional
# [9] = target: T4, Protein RecA (Mycobacterium tuberculosis, UniProt P9WHJ3); assay: Fluorescence Cell-Free Homogeneous Dose Retest to Identify Inhibitors of RecA-Intein Splicing Activity. [Related pubchem assays (depositor defined):AID2097, AID2223, AID489010, AID492950]; format: functional
# T4 sequence (P9WHJ3 whole entry): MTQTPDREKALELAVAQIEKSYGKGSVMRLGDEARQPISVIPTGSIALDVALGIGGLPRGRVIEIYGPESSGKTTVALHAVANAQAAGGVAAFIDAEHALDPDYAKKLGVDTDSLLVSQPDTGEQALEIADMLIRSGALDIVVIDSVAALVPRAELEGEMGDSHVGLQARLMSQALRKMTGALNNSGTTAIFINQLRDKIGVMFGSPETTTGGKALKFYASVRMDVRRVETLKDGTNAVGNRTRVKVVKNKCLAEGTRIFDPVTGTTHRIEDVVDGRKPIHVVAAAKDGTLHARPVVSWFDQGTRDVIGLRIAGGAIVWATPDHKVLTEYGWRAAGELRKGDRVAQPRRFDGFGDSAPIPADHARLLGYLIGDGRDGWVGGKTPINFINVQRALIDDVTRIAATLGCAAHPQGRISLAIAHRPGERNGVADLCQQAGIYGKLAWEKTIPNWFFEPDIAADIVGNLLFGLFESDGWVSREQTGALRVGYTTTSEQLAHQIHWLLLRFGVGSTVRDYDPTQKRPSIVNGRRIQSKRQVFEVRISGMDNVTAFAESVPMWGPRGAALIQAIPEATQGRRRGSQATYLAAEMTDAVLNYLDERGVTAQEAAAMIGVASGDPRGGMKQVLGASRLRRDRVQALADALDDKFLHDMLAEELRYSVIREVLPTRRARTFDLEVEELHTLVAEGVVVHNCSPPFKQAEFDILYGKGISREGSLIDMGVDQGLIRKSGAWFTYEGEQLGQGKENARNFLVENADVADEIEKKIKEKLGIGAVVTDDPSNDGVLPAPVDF
# [10] = target: T5, Replicative DNA helicase DnaB (Mycobacterium tuberculosis, UniProt P9WMR3); assay: DnaB intein splicing inhibitors, dose response, biochemical, cell-free fluorescence (AID 449749); format: functional
# T5 sequence (P9WMR3 whole entry): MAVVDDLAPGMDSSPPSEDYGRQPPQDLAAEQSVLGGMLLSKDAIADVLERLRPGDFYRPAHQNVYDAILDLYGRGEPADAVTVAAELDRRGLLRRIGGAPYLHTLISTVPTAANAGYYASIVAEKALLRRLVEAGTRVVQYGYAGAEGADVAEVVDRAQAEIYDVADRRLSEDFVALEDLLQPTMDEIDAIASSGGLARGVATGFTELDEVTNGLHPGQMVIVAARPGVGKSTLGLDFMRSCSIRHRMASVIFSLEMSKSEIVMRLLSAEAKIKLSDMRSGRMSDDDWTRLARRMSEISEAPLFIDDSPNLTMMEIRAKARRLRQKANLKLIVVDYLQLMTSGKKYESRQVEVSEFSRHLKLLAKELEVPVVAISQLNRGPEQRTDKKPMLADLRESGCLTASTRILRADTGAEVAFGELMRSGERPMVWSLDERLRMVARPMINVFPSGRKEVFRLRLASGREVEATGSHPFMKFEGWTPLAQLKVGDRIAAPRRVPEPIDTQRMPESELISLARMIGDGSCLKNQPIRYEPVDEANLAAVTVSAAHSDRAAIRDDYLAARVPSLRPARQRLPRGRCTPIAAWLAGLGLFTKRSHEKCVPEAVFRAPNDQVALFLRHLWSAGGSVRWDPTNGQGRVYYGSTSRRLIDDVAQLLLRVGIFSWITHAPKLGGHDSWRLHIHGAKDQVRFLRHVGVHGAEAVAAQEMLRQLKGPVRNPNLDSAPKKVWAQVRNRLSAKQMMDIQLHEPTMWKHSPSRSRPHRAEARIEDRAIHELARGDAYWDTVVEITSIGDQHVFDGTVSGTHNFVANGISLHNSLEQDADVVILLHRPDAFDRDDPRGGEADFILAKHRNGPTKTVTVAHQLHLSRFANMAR
# [11] = tested on: BJ; assay: cells; format: functional, cell-based; conditions: Homo sapiens
# [12] = tested on: BJ; assay: cytotoxicity toward BJ-TERT-LT-ST fibroblasts, dose response, cell-based, RAS-independent, luminescence (AID 1935); format: functional; conditions: Homo sapiens;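 further: BJ fibroblasts immortalized with TERT plus LT and ST oncogenes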
# [13] = tested on: BJ; assay: cytotoxicity toward BJ-TERT fibroblasts, dose response, cell-based, RAS-independent, luminescence (AID 1933); format: functional; conditions: Homo sapiens
# [14] = cytotoxicity toward DRD oncogenic fibroblasts, dose response, cell-based, non-viral oncogenic, luminescence (AID 1934); format: functional; conditions: Homo sapiens
# [15] = intracellular Trypanosoma cruzi inhibitors in host cells – cell-based, plate reader, cherry-pick samples, set 3, dose response (AID 651818); format: functional;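 further: compounds incubated with infected cells for about four days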
# T2 sequence (P11940 whole entry): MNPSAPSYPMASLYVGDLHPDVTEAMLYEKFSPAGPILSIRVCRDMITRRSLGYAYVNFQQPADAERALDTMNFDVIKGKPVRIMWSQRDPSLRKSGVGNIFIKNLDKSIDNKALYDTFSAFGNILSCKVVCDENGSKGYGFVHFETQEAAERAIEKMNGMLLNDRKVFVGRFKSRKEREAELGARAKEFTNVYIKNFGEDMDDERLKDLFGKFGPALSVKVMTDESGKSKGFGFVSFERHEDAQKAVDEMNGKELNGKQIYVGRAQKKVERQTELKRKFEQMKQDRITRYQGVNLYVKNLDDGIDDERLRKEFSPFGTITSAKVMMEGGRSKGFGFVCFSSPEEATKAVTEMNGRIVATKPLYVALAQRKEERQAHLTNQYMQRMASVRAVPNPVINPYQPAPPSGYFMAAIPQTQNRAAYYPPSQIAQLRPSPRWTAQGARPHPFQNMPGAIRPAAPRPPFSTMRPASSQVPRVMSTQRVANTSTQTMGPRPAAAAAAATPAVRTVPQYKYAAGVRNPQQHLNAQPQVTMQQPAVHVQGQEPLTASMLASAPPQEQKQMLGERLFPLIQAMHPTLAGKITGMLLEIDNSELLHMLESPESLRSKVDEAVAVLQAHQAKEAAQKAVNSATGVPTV
# Chain of Genome polyprotein (P29990 2492-3391 limits assumed): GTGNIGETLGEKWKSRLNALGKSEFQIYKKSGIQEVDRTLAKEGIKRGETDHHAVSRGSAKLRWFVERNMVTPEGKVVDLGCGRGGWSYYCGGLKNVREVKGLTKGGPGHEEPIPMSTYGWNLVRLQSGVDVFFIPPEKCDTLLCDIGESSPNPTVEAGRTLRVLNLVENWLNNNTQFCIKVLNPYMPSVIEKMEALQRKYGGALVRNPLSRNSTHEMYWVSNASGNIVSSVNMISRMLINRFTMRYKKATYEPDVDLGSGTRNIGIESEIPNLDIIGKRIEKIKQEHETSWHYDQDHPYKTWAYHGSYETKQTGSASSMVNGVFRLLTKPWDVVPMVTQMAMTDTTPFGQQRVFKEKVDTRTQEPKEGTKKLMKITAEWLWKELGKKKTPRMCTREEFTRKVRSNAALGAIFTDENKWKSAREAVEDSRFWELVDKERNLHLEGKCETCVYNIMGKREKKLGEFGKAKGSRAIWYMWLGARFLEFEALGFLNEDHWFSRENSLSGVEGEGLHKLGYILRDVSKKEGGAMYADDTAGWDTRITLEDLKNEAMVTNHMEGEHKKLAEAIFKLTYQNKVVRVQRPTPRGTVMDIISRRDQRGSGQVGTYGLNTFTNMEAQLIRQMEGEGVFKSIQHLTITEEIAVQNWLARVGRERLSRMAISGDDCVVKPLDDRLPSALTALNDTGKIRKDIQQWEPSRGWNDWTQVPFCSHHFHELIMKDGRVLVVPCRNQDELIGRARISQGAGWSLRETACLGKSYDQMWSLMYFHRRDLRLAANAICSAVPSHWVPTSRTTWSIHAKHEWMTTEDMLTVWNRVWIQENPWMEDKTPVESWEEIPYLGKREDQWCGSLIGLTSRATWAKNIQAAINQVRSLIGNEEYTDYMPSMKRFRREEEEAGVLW
smiles,measurement,setting,value
COC(CNc1ncnc2c1cnn2C)OC,EC50,[1],> 53 µM (inactive)
same,IC50,[2],> 47.1 µM (inactive)
COc1ccc(C(=O)NC(=S)Nc2cccc(NC(=O)c3ccco3)c2)cc1[N+](=O)[O-],IC50,[3],> 66 µM (inactive)
same,IC50,[4],> 66 µM (inactive)
CN(CC1CCOCC1)C(=O)CC1C(=O)NCCN1Cc1ccc(Cl)c(F)c1 (configuration not stated),EC50,[1],> 53 µM (inactive)
same,IC50,[2],> 47.1 µM (inactive)
CCN(c1ccccc1)S(=O)(=O)c1ccc(NC(=O)c2ccco2)cc1,EC50,[1],> 53 µM (inactive)
same,IC50,[2],> 47.1 µM (inactive)
CC(SC1=NCCS1)C(=O)Nc1nnc(-c2ccc(Br)cc2)s1 (configuration not stated),EC50,[1],> 53 µM (inactive)
same,IC50,[2],> 47.1 µM (inactive)
COc1ccc(C2=NN=C(c3ccco3)Nc3ccc(F)cc32)cc1,EC50,[1],> 53 µM (inactive)
same,IC50,[2],> 47.1 µM (inactive)
COc1ccc(NC(=O)CCCC2CCCCC2)cc1S(=O)(=O)N1CCCCC1,EC50,[1],> 53 µM (inactive)
same,IC50,[2],> 47.1 µM (inactive)
CCOC(=O)C1C(C)=CC(=O)CC1c1ccco1 (configuration not stated),EC50,[1],> 53 µM (inactive)
same,IC50,[2],> 47.1 µM (inactive)
CCCn1c(O)c(N=NC(=O)c2ccco2)c2ccccc21,CC50,[5],> 40 µM (active)
same,CC50,[6],> 40 µM (active)
same,EC50,[7],> 195 µM (not active)
CCOC(=O)CSc1nc2c(c(=O)[nH]c(=O)n2C)n1C/C=C(/C)Cl,IC50,[3],> 66 µM (inactive)
same,IC50,[4],> 66 µM (inactive)
CCOC(=O)c1c(N)sc2c1CCS(=O)(=O)C2,IC50,[3],> 66 µM (inactive)
same,IC50,[4],> 66 µM (inactive)
CC1=NN(c2ccccc2)C(=O)/C1=C/c1cccs1,IC50,[8],46.8 µM (active)
same,EC50,[9],4.53 µM (active)
same,AC50,[10],4.26 µM (active)
O=C(CSc1nncc2ccccc12)N1CCOCC1,IC50,[3],> 66 µM (inactive)
same,IC50,[4],> 66 µM (inactive)
CN(C)c1ccc(C(=O)c2ccccc2C(=O)O)cc1[N+](=O)[O-],EC50,[11],> 150 µM (not active)
same,EC50,[12],> 150 µM (not active)
same,EC50,[13],> 150 µM (not active)
same,EC50,[14],102 µM (active)
CC(C)(C)C(=O)Nc1c2c(nn1-c1ccc(F)cc1)CSC2,IC50,[3],> 66 µM (inactive)
same,IC50,[4],> 66 µM (inactive)
O=C1CC(SC(=S)C2CCCC2=O)C(=O)N1 (configuration not stated),IC50,[3],> 66 µM (inactive)
same,IC50,[4],> 66 µM (inactive)
same,IC50,[8],45.4 µM (active)
Cc1ccsc1C(=O)N/N=C/c1ccc2c(c1)OCO2,EC50,[11],11.6 µM (inconclusive)
same,EC50,[12],> 150 µM (inconclusive)
same,EC50,[13],15.4 µM (active)
same,EC50,[14],9.95 µM (inconclusive)
C/C(=N\Nc1cc(C)nc(-c2ccccc2)n1)c1cccc([N+](=O)[O-])c1,EC50,[1],> 53 µM (inactive)
same,IC50,[2],> 47.1 µM (inactive)
Cc1n[nH]c2c(=S)[nH]c(=O)[nH]c12,IC50,[3],> 66 µM (inactive)
same,IC50,[4],> 66 µM (inactive)
C[C@H](CO)N1C[C@H](C)[C@H](CN(C)Cc2ccc(C(F)(F)F)cc2)Oc2ccc(NC(=O)Nc3cccc4ccccc34)cc2C1=O,AC50,[15],2.81 µM (active)
C[C@@H]1CCCCO[C@@H](CN(C)C(=O)Nc2ccc(C(F)(F)F)cc2)[C@@H](C)CN([C@H](C)CO)C(=O)c2cc(NS(=O)(=O)c3ccc(F)cc3)ccc2O1,AC50,[15],1.85 µM (active)
C[C@@H]1CN([C@H](C)CO)C(=O)Cc2cc(NC(=O)C3CCCCC3)ccc2O[C@H]1CN(C)Cc1ccc(Oc2ccccc2)cc1,AC50,[15],2.45 µM (active)
C[C@@H]1CN([C@H](C)CO)C(=O)c2cccc(NC(=O)Nc3ccc(C(F)(F)F)cc3)c2O[C@H]1CN(C)C(=O)Nc1ccc2c(c1)OCO2,AC50,[15],6.12 µM (active)
C[C@H]1CN([C@@H](C)CO)C(=O)Cc2cc(NC(=O)CCCCCC(=O)Nc3ccccc3N)ccc2O[C@@H]1CN(C)Cc1ccc(C(F)(F)F)cc1,AC50,[15],5.01 µM (active)
C[C@H](CO)N1C[C@H](C)[C@H](CN(C)Cc2ccc(Oc3ccccc3)cc2)Oc2c(NC(=O)c3cnccn3)cccc2C1=O,AC50,[15],5.22 µM (active)
COc1ccc(S(=O)(=O)N(C)C[C@@H]2OCCCC[C@@H](C)Oc3ccc(NC(=O)Nc4ccc(C(F)(F)F)cc4)cc3C(=O)N([C@H](C)CO)C[C@@H]2C)cc1,AC50,[15],5.92 µM (active)
